Data reported in patent publication US20080039442A1, “Compounds With Kv4 Ion Channel Activity” (Devgen NV, priority 2004, published 2008).
Where two headings read alike, the source gives them in different places.

Tests used:
[1] = biological target: T1, human Kv4.3/KChIP2.2 potassium channel (Homo sapiens, UniProt Q9UK17); assay: Whole cell patch clamp, CHO-K1 cells stably expressing Kv4.3/KChIP2.2; type: cell-based; conditions: for remaining activity at 1 µM: CHO-K1
T1 construct: expressed in transfected cells
T1 sequence (Q9UK17 1-655): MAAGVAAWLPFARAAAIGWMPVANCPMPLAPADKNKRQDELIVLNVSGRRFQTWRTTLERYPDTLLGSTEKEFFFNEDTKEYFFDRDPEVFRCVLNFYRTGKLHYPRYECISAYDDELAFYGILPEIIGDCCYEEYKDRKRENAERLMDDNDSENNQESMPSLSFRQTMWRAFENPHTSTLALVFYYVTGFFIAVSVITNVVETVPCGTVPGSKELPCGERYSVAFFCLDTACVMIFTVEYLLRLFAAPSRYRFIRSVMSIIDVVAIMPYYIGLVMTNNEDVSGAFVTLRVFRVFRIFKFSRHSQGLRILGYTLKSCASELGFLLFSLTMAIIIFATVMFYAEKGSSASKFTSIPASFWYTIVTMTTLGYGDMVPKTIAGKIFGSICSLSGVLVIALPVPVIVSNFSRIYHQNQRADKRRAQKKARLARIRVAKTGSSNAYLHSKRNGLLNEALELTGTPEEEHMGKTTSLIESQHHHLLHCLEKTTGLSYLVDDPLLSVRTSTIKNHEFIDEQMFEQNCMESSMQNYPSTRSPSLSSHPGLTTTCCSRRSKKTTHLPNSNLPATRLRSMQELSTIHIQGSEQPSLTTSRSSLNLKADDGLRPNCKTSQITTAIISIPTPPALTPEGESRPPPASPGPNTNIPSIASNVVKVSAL
T1 sequence (Q9NS61 1-270 partner): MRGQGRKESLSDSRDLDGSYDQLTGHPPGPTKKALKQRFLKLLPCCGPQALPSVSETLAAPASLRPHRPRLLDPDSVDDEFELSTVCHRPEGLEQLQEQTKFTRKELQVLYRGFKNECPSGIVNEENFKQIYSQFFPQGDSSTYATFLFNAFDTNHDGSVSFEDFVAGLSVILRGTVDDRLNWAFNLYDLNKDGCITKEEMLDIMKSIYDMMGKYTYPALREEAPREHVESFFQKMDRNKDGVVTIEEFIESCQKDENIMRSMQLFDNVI
Procedure: For this experiment, a recombinant CHO-K1 cell line stably expressing the human Kv4.3/KChIP2.2 potassium channel was used.
Protocol B: The cells were cultured in 94 mm culture dishes under the culturing conditions of 5% CO2 and 37° C. Subculturing was performed every 3-4 days, by removing the media and then rising the dish with 8 ml PBS (phosphate buffered saline). The PBS was removed and 1 ml Trypsin/EDTA was added to the cells. The cells were incubated about 2 min at 37° C. or 5 min at room temperature and then the dish was rapped to detach and singularize the cells. To inactivate the enzyme 9 ml of media was added and the solution was pipetted up and down to break up clumps of cells. Part of the suspension was then transferred to a new 94 mm dish and media was added to a final volume of 8 ml. If necessary the cells could be seeded onto 35 mm or 94 mm dishes (2 ml media per 35 mm dish and 8 ml media per 94 mm dish). The media was changed every 2-3 days. The media used was the solution for culturing the cells described above. For stable cells antibiotic G418, Hygromycin, Blasticidin, or Zeocin were not added.
The preparation of cells for electrophysiological experiments was performed as described in protocol C hereunder.
Protocol C: The transfected cells and stable cells were transferred from 35 mm cell culture dishes onto coverslips using cold PBS: The media was removed and 0.3 ml of PBS (4-10° C.) was added. The cells were incubated 5 min at room temperature. The dish was rapped to detach and singularize the cells and 1.7 ml media was added and the solution pipetted up and down to break up clumps of cells. Part of the cell suspension was then transferred to a 35 mm dish with coverslips and media. The transfected cells and stable cells could also be transferred from 35 mm cell culture dishes onto coverslips using trypsin: The media was removed and the dish rinsed with 3 ml PBS. The PBS was removed and 0.3 ml 1× Trypsin/EDTA was added and the cells incubated 5 min at room temperature. The dish was rapped to detach and singularize the cells and 1.7 ml media was added and the solution pipetted up and down to break up clumps of cells. Part of the cell suspension was then transferred to a 35 mm dish with coverslips and media.
10 mM stock solutions of the compounds were prepared in DMSO. Solutions of the compounds were prepared by dilution of stock solution in bath solution. If the required stock solution volume was theoretically below 1 μl, bath solutions with higher compound concentration were used for dilution. The maximal DMSO concentration during experiments was 0.1% (v/v).
For patch clamp experiments, the following solutions in demineralized water as vehicle were used (concentration in mM).
Bath (external) solution: 4 KCl, 135 NaCl, 2 CaCl2, 1 MgCl2, 10 D(+)-Glucose, 5 HEPES, pH 7.4 (NaOH).
Pipette (internal) solution: 130 KCl, 1 MgCl2, 10 EGTA, 5 Na2ATP, 5 HEPES, pH 7.4 (KOH).
Experiments were performed using a patch clamp set-up.
Measurements were performed at room temperature (20-25° C.). […] Each cell acted as its own control. The effect of compounds on Kv4.3/KChIP2.2 mediated currents was investigated at one concentration ([…]) with two replicates each (c=1, n=2).
The test protocols are illustrated in FIG. 1 and Table 4. […] Each test protocol consisted of 4 segments.
Subsequently, 14 test pulses (series 1; FIG. 1b and Table 4b) were applied at 0.1 Hz under constant superfusion with bath solution. The protocol was initiated by a voltage jump to −100 mV (400 ms) to achieve full inactivation. Then the Kv4.3/KChIP2.2 channels were transferred to the open state by depolarization to +40 mV for 300 milliseconds (activation). Only cells generating current amplitudes between 1 nA and 50 nA were used for the experimental procedure. No or negligible rundown was observed.
Then, 36 test pulses (series 2) were applied at 0.1 Hz under constant superfusion with the compound dissolved in bath solution. […]

hERG potassium channel = hERG potassium channel (Homo sapiens, UniProt Q12809); assay: Whole cell patch clamp, HEK 293 T-REx HERG cells; conditions: for hERG (%): 10 μM
[2] = read-out: Kv4.3 charge in %: remaining current measured after application of the compound and relative to the blank
[3] = read-out: Kv4.3 peak in %: remaining peak height measured after application of the compound and relative to the blank

hERG potassium channel, sequence (Q12809 whole entry): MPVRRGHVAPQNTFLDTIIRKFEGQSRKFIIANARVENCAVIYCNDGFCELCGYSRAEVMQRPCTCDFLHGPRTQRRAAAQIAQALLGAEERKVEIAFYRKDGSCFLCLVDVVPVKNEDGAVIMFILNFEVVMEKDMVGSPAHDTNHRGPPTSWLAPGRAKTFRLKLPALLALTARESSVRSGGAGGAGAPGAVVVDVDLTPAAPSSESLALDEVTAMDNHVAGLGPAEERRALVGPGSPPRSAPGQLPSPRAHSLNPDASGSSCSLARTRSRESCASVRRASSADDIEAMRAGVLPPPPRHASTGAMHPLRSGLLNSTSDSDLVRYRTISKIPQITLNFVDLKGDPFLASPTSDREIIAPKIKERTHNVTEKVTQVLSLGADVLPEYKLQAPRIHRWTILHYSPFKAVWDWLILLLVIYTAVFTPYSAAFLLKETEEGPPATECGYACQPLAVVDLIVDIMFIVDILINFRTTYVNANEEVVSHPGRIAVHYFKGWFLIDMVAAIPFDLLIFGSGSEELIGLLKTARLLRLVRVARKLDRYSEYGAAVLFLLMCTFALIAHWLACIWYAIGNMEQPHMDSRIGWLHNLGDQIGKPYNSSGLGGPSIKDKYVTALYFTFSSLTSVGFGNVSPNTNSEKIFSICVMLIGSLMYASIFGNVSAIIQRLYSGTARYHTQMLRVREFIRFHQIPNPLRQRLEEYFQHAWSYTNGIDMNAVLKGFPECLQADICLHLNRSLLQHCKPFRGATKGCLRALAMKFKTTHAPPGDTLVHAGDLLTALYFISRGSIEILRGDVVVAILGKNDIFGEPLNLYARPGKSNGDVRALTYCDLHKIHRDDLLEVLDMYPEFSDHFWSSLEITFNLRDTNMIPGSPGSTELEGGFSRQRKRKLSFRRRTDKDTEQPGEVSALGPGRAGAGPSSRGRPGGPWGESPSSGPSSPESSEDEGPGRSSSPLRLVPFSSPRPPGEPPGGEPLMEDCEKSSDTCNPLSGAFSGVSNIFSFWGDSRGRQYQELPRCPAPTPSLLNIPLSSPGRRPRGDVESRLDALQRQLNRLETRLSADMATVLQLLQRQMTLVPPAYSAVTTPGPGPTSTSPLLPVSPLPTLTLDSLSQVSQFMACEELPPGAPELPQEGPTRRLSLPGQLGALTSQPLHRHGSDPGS

SMILES | IC50 ([1]; Table 12, read-out: Kv4.3 charge IC50) [µM] | melting point [°C] | remaining activity at 1 µM [1, 2] [%] | remaining activity at 1 µM [1, 3] [%] | IC50 (hERG potassium channel) [µM] | Ratio hERG/Kv4.3 (hERG potassium channel; selectivity Kv4.3 vs hERG, patch clamp) | hERG (%) (hERG potassium channel)
CN(CCCN1c2ccccc2CCc2ccccc21)C(=O)c1cc2cc(Cl)ccc2o1 [Compound 4, 5-chloro-benzofuran-2-carboxylic acid [3-(10,11-dihydro-dibenzo[b,f]azepin-5-yl)-propyl]-methyl-amide] | 3.81 |  |  |  | 20 | 5.2 | 
COc1ccc(CNC(=O)c2oc3ccc(Cl)cc3c2C)c(OC)c1 [Compound 16, 5-choro-3-methyl-benzofuran-2-carboxylic acid 2,4-dimethoxy-benzylamide] |  | 139.8 to 140.4 | 24 | 88 |  |  | 47
COc1ccc(CNC(=O)c2oc3ccccc3c2-n2cccc2)c(OC)c1 [Compound 18, 3-pyrrol-1-yl-benzofuran-2-carboxylic acid 2,4-dimethoxy-benzylamide] |  | 46 to 51.8 | 45 | 88 |  |  | 41
O=C(c1cc2cc(Cl)ccc2o1)N1CCCCC1Cc1ccccc1 (centres unmarked) [Compound 28, (2-benzyl-piperidin-1-yl)-(5-chloro-benzofuran-2-yl)-methanone] |  |  | 38 | 86 |  |  | 6
COc1ccc(CNC(=O)c2cc3ccccc3s2)c(OC)c1 [Compound 32, benzo[b]thiophene-2-carboxylic acid 2,4-dimethoxy-benzylamide] |  | 134.4 to 135.3 | 75 | 100 |  |  | 
CC(=O)Oc1ccc(CNC(=O)c2cc3cc(Cl)ccc3o2)cc1 [Compound 33, acetic acid 4-{[(5-chloro-benzofuran-2-carbonyl)-amino]-methyl}-phenyl ester] |  | 162.5 to 164.5 | 89 | 100 |  |  | 
O=C(NCc1ccc(-c2cccs2)cc1)c1cc2cc(Cl)ccc2o1 [Compound 34, 5-chloro-benzofuran-2-carboxylic acid 4-thiophen-2-yl-benzylamide] |  | 173.5 to 175 | 90 | 98 |  |  | 
Cc1ccc(CNC(=O)c2cc3cc(Cl)ccc3o2)cc1 [Compound 36, 5-chloro-benzofuran-2-carboxylic acid 4-methyl-benzylamide] |  | 161.9 to 162.9 | 72 | 89 |  |  | 
O=C(c1cc2cc(Cl)ccc2o1)N1CCC(c2ccccc2)CC1 [Compound 38, (5-chloro-benzofuran-2-yl)-(4-phenyl-piperidin-1-yl)-methanone] |  | 101 to 101.6 | 89 | 99 |  |  | 

Second part, led by results:

IC50 ([1]; Table 12, read-out: Kv4.3 charge IC50) [µM] | melting point [°C] | remaining activity at 1 µM [1, 2] [%] | remaining activity at 1 µM [1, 3] [%] | SMILES | IC50 (hERG potassium channel) [µM] | Ratio hERG/Kv4.3 (hERG potassium channel; selectivity Kv4.3 vs hERG, patch clamp) | hERG (%) (hERG potassium channel)
 | 148.4 to 149.9 | 90 | 91 | O=C(NCc1cccs1)c1cc2cc(Cl)ccc2o1 [Compound 39, 5-chloro-benzofuran-2-carboxylic acid 4-(thiophen-2-ylmethyl)-amide] |  |  | 
 | 136.3 | 89 | 98 | COc1ccc(CNC(=O)c2cnc3ccccc3c2)c(OC)c1 [Compound 42, quinolin-3-carboxylic acid 2,4-dimethoxy-benzylamide] |  |  | 
 | 60.2 to 60.4 | 85 | 98 | CN(C)CC(NC(=O)c1cc2cc(Cl)ccc2o1)c1ccccc1 (centres unmarked) [Compound 49, 5-chloro-benzofuran-2-carboxylic acid (2-dimethylamino-1-phenyl-ethyl)-amide] |  |  | 
 | 168.3 to 168.7 | 39 | 86 | Cc1cccc(Cl)c1CNC(=O)c1cc2cc(Cl)ccc2o1 [Compound 62, 5-chloro-benzofuran-2-carboxylic acid 2-chloro-6-methyl-benzylamide] |  |  | 
 | 178.6 to 179.7 | 76 | 85 | CN(C)c1ccc(CNC(=O)c2cc3cc(Cl)ccc3o2)cc1 [Compound 64, 5-chloro-benzofuran-2-carboxylic acid 4-dimethylamino-benzylamide] |  |  | 
 | 129.5 to 131.1 | 71 | 95 | CC(C)(C)c1ccc(CNC(=O)c2cc3cc(Cl)ccc3o2)cc1 [Compound 71, 5-chloro-benzofuran-2-carboxylic acid 4-tert-butyl-benzylamide] |  |  | 
 | 111.3 to 116.6 | 73 | 89 | O=C(c1cc2cc(Cl)ccc2o1)N1CC=C(c2ccc(F)cc2)CC1 [Compound 93, (5-chloro-benzofuran-2-yl)-[4-(4-fluoro-phenyl)-3,6-dihydro-2H-pyridin-1-yl]-methanone] |  |  | 
 | 197.4 to 198.8 | 90 | 99 | O=C(Nc1ccc(Cn2cccn2)cc1)c1cc2cc(Cl)ccc2o1 [Compound 105, 5-chloro-benzofuran-2-carboxylic acid (4-pyrazol-1-ylmethyl-phenyl)-amide] |  |  | 
 | 173.8 to 176.2 | 85 | 99 | COc1ccc(CNC(=O)c2cc3cc(Cl)ccc3o2)c(O)c1 [Compound 108, 5-chloro-benzofuran-2-carboxylic acid 2-hydroxy-4-methoxy-benzylamide] |  |  | 
 |  | 74 | 97 | N#CCCN(Cc1ccccc1)C(=O)c1cc2cc(Cl)ccc2o1 [Compound 109, 5-chloro-benzofuran-2-carboxylic acid benzyl-(2-cyano-ethyl)-amide] |  |  | 34
